Values after ≈ are worked out from the molar mass of the structure shown.

The experiment concerns Staphylococcus aureus. Nature of the experiment: MIC test, microdilution method (CLSI). It is filed as cell-based. The note with it: ATCC strains of Staphylococcus aureus; 18-20 h at 37° C.; growth inhibited ≥80% compared to growth control. Here is the method: Experimental Procedure: MIC Test. Microdilution Method To evaluate the antimicrobial activity of the compounds, ATCC strains of Staphylococcus aureus were used. The minimal inhibitory concentrations (MICs) of the compounds were determined by microdilution assays, according to CLSI methodology. 3 mg of compound were weighted in a 4 mL glass vials and were dissolved in properly volume of DMSO 100% (Reference: […]-50, Sigma) to reach 12.8 mg/mL (Cmax). In 96-well plates U-form (Reference: 650161, Greiner Bio-One): • Dispense 50 μL of the assayed compounds prepared in DMSO 100% at 12.8 mg/mL in each well in column 1. (8 different compounds per plate, row 1 to row 8) • Dispense 25 μL of DMSO 100% in all wells in columns 2 to 12. • With a multichannel pipette, aspire 25 μL of column 1 and dispense in column 2. Mix the contents in column 2 several times and aspire 25 μL. Dispense in column 3. • Repeat the process until column 10. In column 10, aspire 25 μL of the content and discard. In 96-well plates U-form: • With a multichannel pipette (in dispensing mode), aspire a properly volume (consider the number of copies of the mother plate do you want to perform) of all wells in mother plate, to dispense 1 μL/well in daughter plates. Tecan instrument (FREEDOM EVO 100) was used to make the mother and daughter plates. Bacterial suspension will be prepared and normalized to 0.5 McFarland turbidity standard (aprox. 10^8 CFU/mL) using a physiological saline solution (sodium chloride 0.9%). Then, prepared a 1/1000 dilution (aprox. 10^5 CFU/mL) of the suspension in appropriate media (CLSI Standard) and inoculate 99 μL in each well in daughter plates (only columns 1 to 11) using a MultidropTM Combi Reagent Dispenser. In column 12, only 99 μL of media will be dispense as a sterility control. The final plate map is (all values in μg/mL): Plates will be incubated 18-20 h at 37° C. MIC values will be considered as the concentration of compounds at which the growth will be inhibited=>≥80%, compared to growth control.
A general note: In broth dilution the organism is exposed to a series of concentrations in liquid medium.
By MIC is commonly meant the lowest concentration found to suppress growth. Read a high MIC as weaker potency. For `COc1ccccc1N(CCO)C(=O)Cc1noc(CN2C(=O)C(=O)N(CC3CC3)C2=O)n1` [Example 1, 2-(5-((3-(Cyclopropylmethyl)-2,4,5-trioxoimidazolidin-1-yl)methyl)-1,2,4-oxadiazol-3-yl)-N-(2-hydroxyethyl)-N-(2-methoxyphenyl)acetamide], the MIC came out at 4 µg/mL (≈ 8.74 µM).

The compound `COc1ccccc1N(CCCO)C(=O)Cc1noc(CN2C(=O)C(=O)N(CC3CC3)C2=O)n1` [Example 4, 2-(5-((3-(cyclopropylmethyl)-2,4,5-trioxoimidazolidin-1-yl)methyl)-1,2,4-oxadiazol-3-yl)-N-(3-hydroxypropyl)-N-(2-methoxyphenyl)acetamide] gave an MIC of 16 µg/mL (≈ 33.9 µM).

For the compound `COc1ccccc1N(CCOCCO)C(=O)Cc1noc(CN2C(=O)C(=O)N(CC3CC3)C2=O)n1` [Example 5, 2-(5-((3-(cyclopropylmethyl)-2,4,5-trioxoimidazolidin-1-yl)methyl)-1,2,4-oxadiazol-3-yl)-N-(2-(2-hydroxyethoxy)ethyl)-N-(2-methoxyphenyl)acetamide], the MIC was 32 µg/mL (≈ 63.8 µM).

In turn, `CCN(C(=O)Cc1noc(CN2C(=O)C(=O)N(CC3CC3)C2=O)n1)c1ccccc1OC` [Example 24, 2-(5-((3-(Cyclopropylmethyl)-2,4,5-trioxoimidazolidin-1-yl)methyl)-1,2,4-oxadiazol-3-yl)-N-ethyl-N-(2-methoxyphenyl)acetamide] yielded an MIC of 8 µg/mL (≈ 18.1 µM). This MIC is about 4-fold lower than that of the compound before.

With `COc1ccccc1N(C)C(=O)Cc1noc(CN2C(=O)C(=O)N(CC3CC3)C2=O)n1` [Example 26, 2-(5-((3-(Cyclopropylmethyl)-2,4,5-trioxoimidazolidin-1-yl)methyl)-1,2,4-oxadiazol-3-yl)-N-(2-methoxyphenyl)-N-methylacetamide], the MIC was 4 µg/mL (≈ 9.36 µM).

For the compound `COc1ccccc1NC(=O)Cc1noc(CN2C(=O)C(=O)N(CC3CC3)C2=O)n1` [Example 27, 2-(5-((3-(Cyclopropylmethyl)-2,4,5-trioxoimidazolidin-1-yl)methyl)-1,2,4-oxadiazol-3-yl)-N-(2-methoxyphenyl)acetamide], the MIC was 4 µg/mL (≈ 9.68 µM).

Values taken from US20260226038A1, “NEW COMPOUNDS FOR TREATING STAPHYLOCOCCUS INFECTIONS” (AB2 THERAPEUTICS, S. L., priority 2023, published 2026).
